These results are taken from US11185521B2, “Substituted aromatic compounds and pharmaceutical compositions for the prevention and treatment of osteoporosis” (Liminal BioSciences Inc., priority 2014, dated 2021).

Entries after “also recorded” stand apart in the source; their conditions may differ.

For series [1], the system named is RAW264.7 cells. In words: IL-12 production in LPS-stimulated RAW264.7 cells (IL-12 ELISA). In kind it is cell-based, murine. The note with it: 100 ng/mL LPS, 21 hours. As to the method:
RAW264.7 cells were cultured with 100 ng/mL of LPS in presence or absence of compounds for 21 hours in a humidified atmosphere of 95% air-5% carbon dioxide at 37° C. IL-12 concentration in the culture medium was measured using the IL-12 ELISA according to the manufacturer (BD Biosciences) recommendations. […] An in vitro IL-12 production assay was used for screening potential inhibitors of osteoclastogenesis.

Series [2] concerns RAW264.7 cells. Briefly: LPS-induced osteoclastogenesis in RAW264.7 cells, TRAP staining. In kind it is cell-based, murine. Conditions: RAW264.7 cells differentiated with LPS (1 ug/ml), days 3-5 (FIG. 1). The source says: RAW264.7 cells are precursors of osteoclasts and can be differentiated by several factors including Receptor activator of NF-κB ligand (RANKL) or Lipopolysaccharide (LPS). Osteoclasts are characterized by high expression or tartrate resistant acid phosphatase (TRACP) and Matrix Metalloproteinase-9 (MMP-9) which can be used as markers for osteoclasts. […] The effect of selected compounds on TRAP (osteoclast marker) and IL-12 was undertaken in RAW264.7 cells, a murine osteoclast precursor cell line, in comparison with capric acid, as a positive control for reduction of osteoclastogenesis (Park et al. (2011) PLOS One Volume 6, Issue 11, 8 pages). RAW264.7 cells were differentiated by the incubation with LPS (1 ug/ml) in presence or not of capric acid or Compound I. On days 3-5, osteoclast formation was evaluated using tartrate-resistant acid phosphatase (TRAP) staining.

Series [3] concerns ovariectomized (OVX) rats. Briefly: Ovariectomized (OVX) rat model of osteoporosis. The format is in vivo, Sprague Dawley rats. From the text:
Although in comparison to humans, the skeletal mass of rats remains stable for a protracted period during their lifespan, rats can be ovariectomized to make them sex-hormone deficient, and to stimulate the accelerated loss of bone that occurs in women following menopause. Ovariectomy induces bone loss in the rat and postmenopausal bone loss share many similar characteristics. These include: increased rate of bone turnover with resorption exceeding formation; an initial rapid phase of bone loss followed by a much slower phase; greater loss of cancellous than cortical bone; decreased intestinal absorption of calcium; some protection against bone loss by obesity; and similar skeletal response to therapy with estrogen, tamoxifen, bisphosphonates, parathyroid hormone, calcitonin and exercise. These wide-ranging similarities are strong evidence that the ovariectomized rat bone loss model is suitable for studying problems that are relevant to postmenopausal bone loss. Sprague Dawley rats (250 g) were ovariectomized (OVX) at day 0. Rats were treated by oral gavage with Compound I (200 mg/kg) from day 14 to day 68. Evaluation of different parameters (body weight, calcium loss, osteoclast markers (RANKL and TRAP mRNA expression), collagen content and histology) was performed at day 68.

Series [4] has as its system RAW264.7 cells. Conditions: cited from earlier work.
Another series has as its system db/db mice. In words: Serum adiponectin level in uninephrectomized diabetic obese (db/db) mice. In kind it is in vivo. Conditions: uninephrectomized db/db mice treated for 113 days (FIG. 9). The procedure: To determine if selected compounds of this invention can affect serum adiponectin level, a model of diabetes type II/obesity was used. Briefly, db/db mice (6 weeks-old were uninephrectomized and treated with Compound XIV for 113 days (structure is shown in Table 1 hereinbefore). Serum adiponectin levels were determined with a mouse adiponectin enzyme-linked immunosorbant assay kit (R&D Systems).

`CCCCCc1cccc(C(F)C(=O)[O-])c1.[Na+]` (racemic) [Compound XIII, Sodium Salt of (RS)-2-Fluoro-2-(3-pentylphenyl)acetic Acid] gave an IL12 in the series with RAW264.7 cells [1] (compound concentration 0.25 mM) of 17.6 pg/mL.

In the series with RAW264.7 cells [1] (compound concentration 0.25 mM), `CCCCCc1cccc(CC(=O)[O-])c1F.[Na+]` [Compound XI, Sodium Salt of 2-(2-Fluoro-3-pentylphenyl)acetic Acid] came in with an IL12 of 15 pg/mL.

In the series on RAW264.7 cells [1] (compound concentration 0.50 mM), `CCCCc1cccc(CCC(=O)[O-])c1.[Na+]` [Compound III, Sodium Salt of 3-(3-butylphenyl)propionic Acid] came in with an IL12 of 62.28 pg/mL.

Turning to `CCCCCc1cccc(CC(=O)[O-])c1.[Na+]` [Compound I, Sodium Salt of (3-pentylphenyl)acetic Acid], the “osteoclast formation, TRAP staining” value in the series on RAW264.7 cells [2] is given as “no TRAP cells are observable”. Moreover, the “body weight / ovariectomized-induced obesity” value in series [3] (oral gavage 200 mg/kg day 14 to day 68 (FIG. 3)) is listed as “reduced ovariectomized-induced obesity”. In series [3] (oral gavage 200 mg/kg, day 28 to day 56 (FIG. 4)), the “calcium loss in urine” value is reported as “reduced significantly the calcium loss”. For the same molecule, in series [3] (oral gavage 200 mg/kg, day 28 to day 56 (FIG. 5)), the “acid phosphatase activity in serum” value was “reduces the acid phosphatase activity”. Besides, the “ratio of mRNA expression of RANKL/OPG in rat tibia” value in series [3] (oral gavage 200 mg/kg, day 68 (FIG. 6)) is on record as “decreased”. In addition, the “collagen content in the metaphyse of the femur” value in series [3] (oral gavage 200 mg/kg, day 68 (FIG. 7)) is listed as “increased the collagen content”. The “bone loss in the metaphysis of the femur, histology” value in series [3] (oral gavage 200 mg/kg, day 68 (FIG. 8)) was “reduced bone loss”. The IL12 in the series on RAW264.7 cells [1] (compound concentration 0.50 mM) was determined as 54.34 pg/mL. Moreover, in the series on RAW264.7 cells [1] (various concentrations (FIG. 2, Table 2)), the “IL-12 production (in words)” value is reported as “strong induction of IL-12 production”.

The molecule `CCCCCc1cc(CC(=O)[O-])ccc1O.[Na+]` [Compound VIII, Sodium Salt of 2-(4-Hydroxy-3-pentylphenyl)acetic Acid] showed an IL12 with RAW264.7 cells [1] (compound concentration 0.50 mM) of 20 pg/mL.

Consider `CCCCCc1cc(O)cc(CC(=O)[O-])c1.[Na+]` [Compound VII, Sodium Salt of 3-hydroxy-5-pentylphenylacetic Acid], for which, in the series on RAW264.7 cells [1] (compound concentration 0.50 mM), the IL12 turned out to be 16.6 pg/mL.

In the series on RAW264.7 cells [1] (compound concentration 0.1 mM), `CCCCCc1cccc(CC(=O)[O-])c1O.[Na+]` [Compound IX, Sodium Salt of 2-(2-Hydroxy-3-pentylphenyl)acetic Acid] showed an IL12 of 12.57 pg/mL.

Turning to `CCCCCc1cc(CCCCC)c(O)c(CC(=O)[O-])c1.[Na+]` [Compound XVI, Sodium Salt of 2-(2-Hydroxy-3,5-dipentylphenyl)acetic Acid], in the series with RAW264.7 cells [1] (compound concentration 0.005 mM), the IL12 turned out to be 15 pg/mL.

On to `CCCCCCCCCC(=O)O` [capric acid], for which the “osteoclast formation, TRAP staining” value with RAW264.7 cells [2] is given as “no TRAP cells are observable”. In the series with RAW264.7 cells [4] (literature (Wang et al. 2006)), the IL-12 production entry is recorded as “increase in IL-12 production; also recorded: increases the production of IL-12” and the “phosphatase (TRAP)-positive cells” value is “reduction of phosphatase (TRAP)-positive cells”. Moreover, in the series on RAW264.7 cells [4] (literature), the “LPS-upregulated iNOS mRNA levels and nitric oxide (NO) production” value is on record as “inhibited them”; the “monocyte chemoattractant protein-1 (MCP-1) mRNA expression” value is “inhibited monocyte chemoattractant protein-1 (MCP-1) mRNA expression”.

In the series on RAW264.7 cells [1] (compound concentration 0.50 mM), `CCCCCc1cc(CC(=O)[O-])ccc1F.[Na+]` [Compound XII, Sodium Salt of 2-(4-Fluoro-3-pentylphenyl)acetic Acid] returned an IL12 of 419.6 pg/mL.

Regarding `CCCCCc1cccc(CCC(=O)[O-])c1.[Na+]` [Compound II, Sodium Salt of 3-(3-pentylphenyl)propionic Acid], the IL12 with RAW264.7 cells [1] (compound concentration 0.50 mM) came to 350.65 pg/mL.

In the series on RAW264.7 cells [1] (compound concentration 0.0025 mM), `CCCCCc1cc(CCCCC)cc(CCC(=O)[O-])c1.[Na+]` [Compound XXIV, Sodium 3-[3,5-Dipentylphenyl]propanoate] gave an IL12 of 79.9 pg/mL.

In the series on RAW264.7 cells [1] (compound concentration 0.50 mM), `CCCC/C=C/c1cccc(CC(=O)[O-])c1.[Na+]` [Compound V, Sodium Salt of 2-(3-(Hex-1-enyl]phenyl)acetic Acid] had an IL12 of 52.5 pg/mL.

In turn, `CCCCCc1cc(CCCCC)cc(CC(=O)[O-])c1.[Na+]` [Compound XIV, Sodium 2-[3,5-Dipentylphenyl] Acetate] returned a melting point of 225 to 230 °C. Moreover, in the series with db/db mice, the serum adiponectin level entry is listed as “increased the level of adiponectin to the level of the sham animals”.

With `CCC/C=C/c1cccc(CC(=O)[O-])c1.[Na+]` [Compound IV, Sodium Salt of E-(3-pent-1-enyl-phenyl)acetic Acid], the IL12 with RAW264.7 cells [1] (compound concentration 0.50 mM) was 19.31 pg/mL.

As to `CCCCCCc1cccc(CC(=O)[O-])c1.[Na+]` [Compound VI, Sodium Salt of 2-(3-Hexylphenyl)acetic Acid], the IL12 in the series on RAW264.7 cells [1] (compound concentration 0.25 mM) came out at 58.87 pg/mL.

In the case of `CCCCCc1cc(F)cc(CC(=O)[O-])c1.[Na+]` [Compound X, Sodium Salt of 2-(3-fluoro-5-pentylphenyl)acetic Acid], in the series with RAW264.7 cells [1] (compound concentration 0.50 mM), the IL12 came out at 80 pg/mL.

Usually melting point stands for the temperature of the solid-liquid transition.
